23 compounds from patent US9085576B2 (AMGEN INC., priority 2013, dated 2015) can be followed below.

Structures are written as SMILES. pIC50: −log10 of the molar value. Where only a bound is given, the exact number is not on record here.

One test concerns the target BACE (Homo sapiens (Human), UniProt P56817). Description: In vitro BACE cell-based assay (Aβ40 in conditioned medium, sandwich ELISA).
Test [1] addresses Beta Secretase enzyme (BACE) (Homo sapiens (Human), UniProt P56817). Nature of the test: In vitro enzymatic BACE FRET assay. The class given is biochemical. The following applies: read-out: BACE1 Enzyme assay IC50.
A further test deals with Cathepsin D (Cat D) (Homo sapiens (Human), UniProt P07339). Nature of the test: In vitro enzymatic Cathepsin D (Cat D) FRET assay. The class given is biochemical. The following applies: read-out: CatD IC50.
Sequence of Cathepsin D (Cat D) (P07339 65-412, species assumed): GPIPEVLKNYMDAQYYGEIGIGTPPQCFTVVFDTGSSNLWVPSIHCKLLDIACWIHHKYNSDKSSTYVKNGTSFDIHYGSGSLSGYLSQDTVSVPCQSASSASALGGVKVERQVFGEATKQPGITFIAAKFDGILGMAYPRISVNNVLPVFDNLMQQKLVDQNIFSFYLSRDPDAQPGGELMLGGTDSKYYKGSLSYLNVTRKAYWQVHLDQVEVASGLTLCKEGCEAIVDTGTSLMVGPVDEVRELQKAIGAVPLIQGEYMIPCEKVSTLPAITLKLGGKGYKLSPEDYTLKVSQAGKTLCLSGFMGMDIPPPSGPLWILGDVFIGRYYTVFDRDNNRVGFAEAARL

Sequence of BACE (P56817 46-501, species assumed): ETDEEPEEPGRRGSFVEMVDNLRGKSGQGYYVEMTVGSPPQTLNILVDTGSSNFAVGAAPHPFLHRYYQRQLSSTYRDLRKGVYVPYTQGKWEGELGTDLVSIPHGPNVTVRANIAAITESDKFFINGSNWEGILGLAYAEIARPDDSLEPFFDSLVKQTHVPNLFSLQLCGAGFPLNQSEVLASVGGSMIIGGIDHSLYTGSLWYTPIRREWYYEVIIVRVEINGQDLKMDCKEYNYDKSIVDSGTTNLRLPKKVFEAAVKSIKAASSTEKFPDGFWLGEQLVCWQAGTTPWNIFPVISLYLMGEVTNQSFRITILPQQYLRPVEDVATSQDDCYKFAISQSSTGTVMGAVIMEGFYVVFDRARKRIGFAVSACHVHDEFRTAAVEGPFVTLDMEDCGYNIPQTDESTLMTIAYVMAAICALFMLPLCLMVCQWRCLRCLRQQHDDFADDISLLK
Sequence of Beta Secretase enzyme (BACE) (P56817 46-501): as the sequence (P56817 46-501, species assumed) above

Take `CC#CCOc1cnc(C(=O)Nc2cc(F)c(F)c(C3(CF)N=C(N)O[C@H]4C[C@H]43)c2)cn1` (stereo in doubt) [Example 36, N-(3-((1S,5S,6S)-3-amino-5-(fluoromethyl)-2-oxa-4-azabicyclo[4.1.0]hept-3-en-5-yl)-4,5-difluorophenyl)-5-(but-2-yn-1-yloxy)pyrazine-2-carboxamide]: on BACE, the IC50 came out at 0.176 µM. Moreover, the results for the pIC50 (in test [1]; on Cathepsin D (Cat D)) were 6.53 and 3.28, respectively.

Regarding `NC1=NC(CF)(c2cc(NC(=O)c3ccc(Br)cn3)cc(F)c2F)[C@@H]2C[C@@H]2O1` (stereo in doubt) [Example 40, N-(3-((1S,5S,6S)-3-amino-5-(fluoromethyl)-2-oxa-4-azabicyclo[4.1.0]hept-3-en-5-yl)-4,5-difluorophenyl)-5-bromopicolinamide], at BACE, the IC50 was 1.91 µM. In addition, the pIC50 is 5.19 in test [1] and 3.29 at Cathepsin D (Cat D).

With `NC1=NC(CF)(c2cc(NC(=O)c3nn(C(F)F)cc3Cl)cc(F)c2F)[C@@H]2C[C@@H]2O1` (stereo in doubt) [Example 47, N-(3-((1S,5S,6S)-3-amino-5-(fluoromethyl)-2-oxa-4-azabicyclo[4.1.0]hept-3-en-5-yl)-4,5-difluorophenyl)-4-chloro-1-(difluoromethyl)-1H-pyrazole-3-carboxamide], on BACE, the IC50 is 1.76 µM. Further, the pIC50 in test [1] is 4.67; at Cathepsin D (Cat D), 3.01.

As to `Cc1cc(C#N)cnc1C(=O)Nc1cc(F)c(F)c([C@@]2(CF)N=C(N)O[C@@H]3C[C@@H]32)c1` (stereo in doubt) [Example 50], the half-maximal inhibitory concentration (IC50) on BACE was more than 15.6 µM. Also, the pIC50 in test [1] was 4.57; on Cathepsin D (Cat D), 2.76.

On to `Cc1cc(C(F)(F)F)cnc1C(=O)Nc1cc(F)c(F)c([C@@]2(CF)N=C(N)O[C@@H]3C[C@@H]32)c1` (stereo in doubt) [Example 52], for which the IC50 on BACE is more than 15.6 µM. The pIC50 in test [1] is less than 4.40; at Cathepsin D (Cat D), 2.79.

The compound `Cc1nc(Cl)cnc1C(=O)Nc1ccc(F)c([C@@]2(C(F)F)N=C(N)O[C@@H]3C[C@@H]32)c1` (stereo in doubt) [Example 53, N-(3-((1R,5S,6R)-3-amino-5-(difluoromethyl)-2-oxa-4-azabicyclo[4.1.0]hept-3-en-5-yl)-4-fluorophenyl)-5-chloro-3-methylpyrazine-2-carboxamide] gave an IC50 against BACE of 2.38 µM. Further, the pIC50 is 7.21 in test [1] and 3.24 on Cathepsin D (Cat D).

For the compound `Cc1ncc(Cl)nc1C(=O)Nc1ccc(F)c([C@@]2(C(F)F)N=C(N)O[C@@H]3C[C@@H]32)c1` (stereo in doubt) [Example 54, N-(3-((1R,5S,6R)-3-amino-5-(difluoromethyl)-2-oxa-4-azabicyclo[4.1.0]hept-3-en-5-yl)-4-fluorophenyl)-6-chloro-3-methylpyrazine-2-carboxamide], at BACE, the IC50 amounted to 2.24 µM. In addition, the negative-log IC50 (pIC50) in test [1] was 5.60; on Cathepsin D (Cat D), 3.34.

The compound `NC1=N[C@](CF)(c2nc(NC(=O)c3ccc(Cl)cn3)ccc2F)[C@H]2C[C@H]2O1` (stereo in doubt) [Example 105, N-(6-((1R,5S,6R)-3-amino-5-(fluoromethyl)-2-oxa-4-azabicyclo[4.1.0]hept-3-en-5-yl)-5-fluoropyridin-2-yl)-5-chloropicolinamide] registered an IC50 on BACE of 2.1 µM. Also, the pIC50 in test [1] was 4.41; on Cathepsin D (Cat D), 2.79.

Compound `NC1=N[C@@](CF)(c2nc(NC(=O)c3ccc(Cl)cn3)ccc2F)[C@@H]2C[C@@H]2O1` (stereo in doubt) [Example 106, N-(6-((1S,5R,6S)-3-amino-5-(fluoromethyl)-2-oxa-4-azabicyclo[4.1.0]hept-3-en-5-yl)-5-fluoropyridin-2-yl)-5-chloropicolinamide] came in with an IC50 against BACE of 0.0456 µM. In addition, the pIC50 in test [1] is 6.60; at Cathepsin D (Cat D), 3.67.

On to `NC1=N[C@@](c2cc(NC(=O)c3nn(C(F)F)cc3Cl)cc(F)c2F)(C(F)F)[C@H]2C[C@H]2O1` (stereo in doubt) [Example 110, N-(3-((1R,5S,6R)-3-amino-5-(difluoromethyl)-2-oxa-4-azabicyclo[4.1.0]hept-3-en-5-yl)-4,5-difluorophenyl)-4-chloro-1-(difluoromethyl)-1H-pyrazole-3-carboxamide], for which the IC50 against BACE is more than 17.4 µM. Besides, the pIC50 in test [1] was 4.58; at Cathepsin D (Cat D), 2.83.

On to `NC1=NC(c2cc(NCc3nn(C(F)F)cc3Cl)ccc2F)(C(F)F)[C@H]2C[C@H]2O1` (stereo in doubt) [Example 374, (1R,5R,6R)-5-(5-(((4-chloro-1-(difluoromethyl)-1H-pyrazol-3-yl)methyl)amino)-2-fluorophenyl)-5-(difluoromethyl)-2-oxa-4-azabicyclo[4.1.0]hept-3-en-3-amine], for which, at BACE, inhibition was half-maximal at 0.0779 µM (IC50). Further, the negative logarithm of the IC50 (pIC50) in test [1] was 7.02; at Cathepsin D (Cat D), 3.94.

For the compound `COc1cc(Cl)cnc1C(=O)Nc1ccc(F)c([C@@]2(C(F)F)N=C(N)O[C@@H]3C[C@@H]32)c1` [Example 28, N-(3-((1R,5S,6R)-3-amino-5-(difluoromethyl)-2-oxa-4-azabicyclo[4.1.0]hept-3-en-5-yl)-4-fluorophenyl)-5-chloro-3-methoxypicolinamide], it took 0.0765 µM to reach half-maximal inhibition at BACE (IC50). Moreover, the negative-log IC50 (pIC50) in test [1] was 6.93; at Cathepsin D (Cat D), 3.04.

`NC1=N[C@@](CF)(c2cc(NC(=O)c3ccc(Cl)cn3)cc(F)c2F)[C@@H]2C[C@@H]2O1` [Example 32, N-(3-((1 S,5R,6S)-3-amino-5-(fluoromethyl)-2-oxa-4-azabicyclo[4.1.0]hept-3-en-5-yl)-4,5-difluorophenyl)-5-chloropicolinamide] returned an IC50 on BACE of 0.232 µM. For the same compound, the pIC50 in test [1] is 5.91; at Cathepsin D (Cat D), 2.99.

`C#CCOc1cnc(C(=O)Nc2cc(F)c(F)c([C@@]3(CF)N=C(N)O[C@@H]4C[C@@H]43)c2)cn1` [Example 33, N-(3-((1R,5S,6R)-3-amino-5-(fluoromethyl)-2-oxa-4-azabicyclo[4.1.0]hept-3-en-5-yl)-4,5-difluorophenyl)-5-(prop-2-yn-1-yloxy)pyrazine-2-carboxamide] yielded an IC50 at BACE of 0.0014 µM. In addition, the figures for the pIC50 (in test [1]; on Cathepsin D (Cat D)) were 8.27 and 3.94, respectively.

With `CC#CCOc1cnc(C(=O)Nc2cc(F)c(F)c([C@@]3(CF)N=C(N)O[C@@H]4C[C@@H]43)c2)cn1` [Example 35, N-(3-((1R,5S,6R)-3-amino-5-(fluoromethyl)-2-oxa-4-azabicyclo[4.1.0]hept-3-en-5-yl)-4,5-difluorophenyl)-5-(but-2-yn-1-yloxy)pyrazine-2-carboxamide], on BACE, the IC50 is 0.0006 µM. In addition, the results for the pIC50 (in test [1]; on Cathepsin D (Cat D)) were 8.80 and 3.59, respectively.

In turn, `NC1=N[C@](CF)(c2cc(NC(=O)c3ccc(Br)cn3)cc(F)c2F)[C@H]2C[C@H]2O1` [Example 39, N-(3-((1R,5S,6R)-3-amino-5-(fluoromethyl)-2-oxa-4-azabicyclo[4.1.0]hept-3-en-5-yl)-4,5-difluorophenyl)-5-bromopicolinamide] had an IC50 against BACE of 0.0179 µM. Also, the pIC50 in test [1] is 7.33; on Cathepsin D (Cat D), 3.96.

At BACE, `NC1=N[C@](CF)(c2cc(NC(=O)c3nn(C(F)F)cc3Cl)cc(F)c2F)[C@H]2C[C@H]2O1` [Example 46, N-(3-((1R,5S,6R)-3-amino-5-(fluoromethyl)-2-oxa-4-azabicyclo[4.1.0]hept-3-en-5-yl)-4,5-difluorophenyl)-4-chloro-1-(difluoromethyl)-1H-pyrazole-3-carboxamide] registered an IC50 of 0.0046 µM. The pIC50 in test [1] is 7.74; on Cathepsin D (Cat D) it was 3.76.

At BACE, `Cc1cc(C#N)cnc1C(=O)Nc1cc(F)c(F)c([C@@]2(CF)N=C(N)O[C@@H]3C[C@@H]32)c1` [Example 49] had an IC50 of 0.0082 µM. In addition, the figures for the pIC50 (in test [1]; at Cathepsin D (Cat D)) were 7.51 and 3.69, respectively.

`Cc1cc(C(F)(F)F)cnc1C(=O)Nc1cc(F)c(F)c([C@@]2(CF)N=C(N)O[C@@H]3C[C@@H]32)c1` [Example 51]: at BACE, the IC50 turned out to be 0.0143 µM. The values for the pIC50 (in test [1]; at Cathepsin D (Cat D)) were 7.20 and 3.95, respectively.

Turning to `CC#CCOc1cnc(C(=O)Nc2ccc(F)c([C@@]3(C)N=C(N)O[C@@H]4C[C@@H]43)c2)c(C)c1` [Example 56, N-(3-((1R,5S,6R)-3-amino-5-methyl-2-oxa-4-azabicyclo[4.1.0]hept-3-en-5-yl)-4-fluorophenyl)-5-(but-2-yn-1-yloxy)-3-methylpicolinamide], at BACE, the IC50 was 0.003 µM. Further, the results for the pIC50 (in test [1]; at Cathepsin D (Cat D)) were 7.89 and 3.52, respectively.

As for `CC#CCOc1cnc(C(=O)Nc2ccc(F)c([C@]3(C)N=C(N)O[C@H]4C[C@H]43)c2)c(C)c1` [Example 57, N-(3-((1S,5R,6S)-3-amino-5-methyl-2-oxa-4-azabicyclo[4.1.0]hept-3-en-5-yl)-4-fluorophenyl)-5-(but-2-yn-1-yloxy)-3-methylpicolinamide], the concentration for half-maximal inhibition (IC50) against BACE was 0.455 µM. Besides, the pIC50 was 5.65 in test [1] and 3.48 on Cathepsin D (Cat D).

On to `NC1=N[C@](c2cc(NC(=O)c3ccc(Cl)cn3)ccc2F)(C(F)F)[C@@H]2C[C@@H]2O1` [Example 60, N-(3-((1S,5R,6S)-3-amino-5-(difluoromethyl)-2-oxa-4-azabicyclo[4.1.0]hept-3-en-5-yl)-4-fluorophenyl)-5-chloropicolinamide], for which the IC50 at BACE was more than 15.6 µM. The pIC50 in test [1] was less than 4.40; at Cathepsin D (Cat D) it was less than 3.40.

At BACE, `COc1cnc(C(=O)Nc2ccc(F)c([C@@]3(C(F)F)N=C(N)O[C@@H]4C[C@@H]43)c2)c(C)n1` [Example 63, N-(3((1R,5S,6R)-3-amino-5-(difluoromethyl)-2-oxa-4-azabicyclo[4.1.0]hept-3-en-5-yl)-4-fluorophenyl)-5-methoxy-3-methylpyrazine-2-carboxamide] gave an IC50 of 0.0584 µM. Besides, the negative logarithm of the IC50 (pIC50) is 7.20 in test [1] and 4.00 on Cathepsin D (Cat D).

As a reminder, the IC50 is the point on the concentration scale where inhibition reaches its midpoint. A low value points to greater potency. For orientation: pIC50 means the IC50 on a negative log10 scale, so that one unit is a factor of ten.
